Converted amounts (≈) assume the structure as drawn. “And” between values parts separate entries of the source, which are not always exact repeats. Equal entries are not always repeated. Where two headings read alike, the source gives them in different places.
What was measured:
C. albicans SC5314 = experiment: In vitro growth assay (MIC) in YNB broth with glucose or acetate; format: cell-based, Candida albicans; details: 3 days at 28 °C; for MIC: Candida albicans, 72 h
Description: The microbial strategy for survival during growth in a nutrient-free environment entails a metabolic shift in the carbon source to C2 substrates generated by β-oxidation of fatty acids. […] To investigate whether ICL inhibitors affected C2 substrate use, we cultured C. albicans strain SC5314 in YNB broth containing either 2% glucose or 2% potassium acetate as the sole carbon source, and inhibition was evaluated based on the MIC.
C. albicans strains were grown in YNB ([…] yeast nitrogen base) broth containing 2% glucose at 28 °C for 24 h, harvested by centrifugation, and washed twice with sterile distilled water. Each test compound was dissolved in DMSO and diluted with YNB containing 2% glucose or 2% potassium acetate to prepare serial twofold dilutions in the range 100–0.1 μg/mL. The final DMSO concentration was maintained at 0.5% by adding DMSO to the medium. Twenty microliters of the broth containing test fungus was added to each well of a 96-well microtiter plate (final concentration of 1 × 10^4 cells/mL). Culture plates were incubated for 3 days at 28 °C. […] Amphotericin B was used as a reference compound.

[1] = target: T1, recombinant ICL from C. albicans ATCC 10231 (Candida albicans, UniProt Q9P8Q7); experiment: biochemical
T1 construct: thioredoxin (fusion partner of the pBAD/Thio-TOPO vector); made in house; host or cells: Escherichia coli TOP10
T1 sequence (Q9P8Q7 whole entry, the tested form may be a part): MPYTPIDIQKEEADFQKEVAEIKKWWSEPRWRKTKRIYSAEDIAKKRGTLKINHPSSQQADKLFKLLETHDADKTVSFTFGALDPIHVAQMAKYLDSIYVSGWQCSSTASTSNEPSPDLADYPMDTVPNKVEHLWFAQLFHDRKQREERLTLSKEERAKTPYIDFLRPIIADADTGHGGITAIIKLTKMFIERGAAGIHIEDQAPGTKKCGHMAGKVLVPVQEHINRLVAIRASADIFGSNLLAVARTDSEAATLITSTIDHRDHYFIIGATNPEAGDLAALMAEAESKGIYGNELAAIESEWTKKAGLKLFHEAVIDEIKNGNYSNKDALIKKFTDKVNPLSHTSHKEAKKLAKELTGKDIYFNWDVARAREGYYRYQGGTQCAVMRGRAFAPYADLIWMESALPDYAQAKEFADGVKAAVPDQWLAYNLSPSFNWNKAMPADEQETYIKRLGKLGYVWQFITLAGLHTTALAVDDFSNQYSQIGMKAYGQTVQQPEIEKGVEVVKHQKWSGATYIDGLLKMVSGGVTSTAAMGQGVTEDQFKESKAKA
Description: Compound 1−9 were obtained as mentioned previously (Figure 1). The expression and purification of recombinant ICL from the genomic DNA of C. albicans (ATCC 10231) were carried out by a method described previously. The inhibitory effects of the isolated compounds on ICL were evaluated according to a procedure documented previously. The basic concept of this method was to measure spectrophotometrically the formation of glyoxylate phenylhydrazone in the presence of phenylhydrazine and isocitrate. The effect of the inhibitor on ICL was calculated as a percentage relative to dimethyl sulfoxide (DMSO)-treated control. Mixture of ICL, substrate, phenyhydrazine was incubated for 30 min with various concentrations of suvanine sesterterpenes (100 to 0.1 μg/mL). The formation of glyoxylate phenylhydrazone was followed spectrophotometrically at 324 nm. Data were scaled to internal controls, and a four- parameter logistic model (GraphPad ver. 5.0, Prism) was used to fit the measured data and determine IC50 (inhibitory concentration for 50% activity) values.
The preparation of recombinant ICL protein from the genomic DNA of C. albicans ATCC 10231 was carried out using a method described previously. Briefly, ICL was PCR-amplified using two synthetic primers: 5′-[…]-3′ (forward) and 5′-[…]-3′ (reverse). The PCR product was cloned into the pBAD/Thio-TOPO vector (Invitrogen, Carlsbad, CA, USA) and transformed into Escherichia coli TOP10 (Invitrogen).
The effect of isolated compounds on ICL was evaluated according to a procedure documented previously. A 1-mL aliquot of the reaction mixture contained 20 mM sodium phosphate buffer (pH 7.0), 1.27 mM threo-DL (+) isocitrate, 3.75 mM MgCl2, 4.1 mM phenylhydrazine and 2.5 μg/mL purified ICL. The reaction was performed at 37 °C for 30 min with and without a prescribed concentration of the inhibitor dissolved in DMSO (final concentration, 0.5%). The formation of glyoxylate phenylhydrazone was followed spectrophotometrically at 324 nm. The effect of the inhibitor on ICL was calculated as a percentage relative to the solvent-treated control. A 12-point, twofold serial dilution dose–response assay was performed in triplicate. The resultant dose–response concentration range was 100 to 0.1 μg/mL of inhibitor in a 1-mL final reaction volume. Data were scaled to internal controls, and a four-parameter logistic model (GraphPad ver. 5.0, Prism) was used to fit the measured data and determine the IC50 values. The ICL inhibitor 3-nitropropionate was used as a positive control. Protein concentration was determined by the method of Bradford using the Bio-Rad protein assay kit (Bio-Rad, Hercules, CA, USA) and bovine serum albumin as a standard.

ICL from C. albicans = ICL from C. albicans (Candida albicans, UniProt Q9P8Q7); experiment: biochemical; format: biochemical; details: for type of inhibition: Lineweaver and Burk plot at IC50 or twofold IC50; for reversibility of binding to enzyme: enzyme activity recovered by dialysis within 2 h
Chain of ICL from C. albicans (Q9P8Q7 whole entry): as the sequence (Q9P8Q7 whole entry, the tested form may be a part) above
Description: To determine the type of inhibition, kinetic studies were performed with compounds 1, 2 and 4 at IC50 or twofold IC50 based on Lineweaver and Burk plot (Figure 3). Inhibitor constants were obtained by Dixon plot.
Figure 3 Lineweaver-Burk plot of ICL inhibition by compounds 1, 2 and 4. [S], substrate concentration [mM]; V, reaction velocity (∆absorbance unit/min). Each data point represents the mean of three experiments.

[2] = test system: ICL mRNA expression in C. albicans; experiment: Semi-quantitative RT-PCR analysis of ICL mRNA expression; format: cell-based, Candida albicans; details: acetate medium
[3] = test system: C. albicans strain SC5314 (wild-type), MRC10 (Δicl), and MRC11 (Δicl + ICL); experiment: Growth phenotype of wild-type and ICL deletion mutants on YNB agar plates; format: cell-based, Candida albicans; details: 12.5 μg/mL, 3 days at 28 °C
[4] = YNB broth with 2% glucose, read-out: MIC, Glucose
[5] = YNB broth with 2% potassium acetate, read-out: MIC, Acetate
[6] = YNB broth with 2% potassium acetate
[7] = recombinant ICL from C. albicans ATCC 10231, 37 °C, 30 min, mean ± SD (n = 3), read-out: ICL IC50
[8] = recombinant ICL from C. albicans ATCC 10231, value in parentheses
[9] = recombinant ICL from C. albicans ATCC 10231, value in parentheses, read-out: ICL IC50

SMILES	MIC (C. albicans SC5314; [4]) [mg/L]	MIC (C. albicans SC5314; [5]) [mg/L]	IC50 ([1]; ICL IC50)	IC50 [1, 7] [µM]	other results
C[C@@H]1[C@H](O)[C@@H](C)/C=C/C=C/C=C/C=C/C=C/C=C/C=C/[C@H](O[C@@H]2O[C@H](C)[C@@H](O)[C@H](N)[C@@H]2O)C[C@@H]2O[C@](O)(C[C@@H](O)C[C@@H](O)[C@H](O)CC[C@@H](O)C[C@@H](O)CC(=O)O[C@H]1C)C[C@H](O)[C@H]2C(=O)O [Amph B, Amphotericin B, reference compound]	1.56 (≈ 1.69 µM)	0.39 (≈ 0.422 µM)			
CC1(C)CCC[C@]2(C)[C@H]3CC/C(=C\OS(=O)(=O)[O-])[C@H](CCc4ccoc4)[C@@]3(C)CC[C@@H]12.C[N+](C)=C(N)N [Compound 1, suvanine salt]					ICL IC50 [1]: 22.43 ± 1.49 (12.03 ± 0.80) µg/mL; IC50 ([1]; read-out: ICL IC50): 22.4 µM; type of inhibition (ICL from C. albicans): uncompetitive inhibitor; reversibility of binding to enzyme (ICL from C. albicans): reversible; Ki (ICL from C. albicans; obtained by Dixon plot, read-out: Ki (inhibitor constant)): 17.4 µM; MIC, Glucose (C. albicans SC5314; YNB broth with 2% glucose): 100 mg/L; MIC, Acetate (C. albicans SC5314; [6]): 25 mg/L
CC1(C)CCC[C@]2(C)[C@H]3CC/C(=C\OS(=O)(=O)[O-])[C@H](CCc4ccoc4)[C@@]3(C)CC[C@@H]12.[Na+] [Compound 2, suvanine salt]	100	12.5	6.35 µM		Ki (ICL from C. albicans): 14.4 µM; type of inhibition (ICL from C. albicans): mixed noncompetitive inhibitors; reversibility of binding to enzyme (ICL from C. albicans): reversible; MIC, Acetate (C. albicans SC5314; [6]): 12.5 mg/L; reduction of ICL mRNA expression ([2]; 12.5 μg/mL, 4 h at 28 °C, densitometric analysis): seventeenfold; ICL transcript levels with increasing compound concentration ([2]; SC5314 and MRC11, 6.25 and 12.5 µg/mL): diminished with increasing compound 2 concentrations; growth on YNB agar plates containing glucose plus compound ([3]; SC5314, MRC10, MRC11, 2% glucose): grew normally; growth on YNB agar plates containing acetate plus compound ([3]; all tested strains, 2% sodium acetate): inhibited markedly
O=C(O)CC[N+](=O)[O-] [Compound 3-NP, 3-Nitropropinate, reference compound]				17.3 ± 1.04	ICL IC50 [1, 8]: 2.06 ± 0.12 µg/mL; MIC, Glucose (C. albicans SC5314; YNB broth with 2% glucose): >100 mg/L; MIC, Acetate (C. albicans SC5314; [6]): >100 mg/L
CC1(C)CCC[C@]2(C)[C@H]3CC/C(=C\OS(=O)(=O)[O-])[C@H](CCC4=CC(=O)O[C@@H]4O)[C@@]3(C)CC[C@@H]12.[Na+] [Compound 3]	> 100	> 100		56.2 ± 7.1	ICL IC50 [1, 8]: 28.33 ± 3.58 µg/mL
CC1(C)CCC[C@]2(C)[C@H]3CC/C(=C\OS(=O)(=O)[O-])[C@H](CCC4=CC(=O)OC4)[C@@]3(C)CC[C@@H]12.[Na+] [Compound 4]	> 100	100	26.3 µM and 26.2 µM		Ki (ICL from C. albicans): 62.6 µM; type of inhibition (ICL from C. albicans): mixed noncompetitive inhibitors; reversibility of binding to enzyme (ICL from C. albicans): reversible
CO[C@@H]1C=C(CC[C@H]2/C(=C/OS(=O)(=O)[O-])CC[C@H]3[C@]2(C)CC[C@H]2C(C)(C)CCC[C@]32C)C(=O)O1.[Na+] [Compound 5]	> 100	> 100		50.2 ± 6.27	IC50 [1, 9]: 50.2 ± 3.25 µM
CO[C@H]1C=C(CC[C@H]2/C(=C/OS(=O)(=O)[O-])CC[C@H]3[C@]2(C)CC[C@H]2C(C)(C)CCC[C@]32C)C(=O)O1.[Na+] [Compound 6]	> 100	100		96.2 ± 1.54	IC50 [1, 9]: 96.08 ± 0.799 µM
CO[C@H]1C=C(CC[C@H]2/C(=C/OS(=O)(=O)[O-])CC[C@H]3[C@]2(C)CC[C@H]2C(C)(C)CCC[C@]32C)[C@@H](OC)O1.[Na+] [Compound 7]	> 100	> 100	59.1 µM and 51.1 µM		
CO[C@@H]1O[C@H](OC)[C@](O)(CC[C@H]2/C(=C/OS(=O)(=O)O)CC[C@H]3[C@]2(C)CC[C@H]2C(C)(C)CCC[C@]32C)[C@H]1O [Compound 8]	> 100	> 100	67.6 µM		
CC1(C)CCC[C@]2(C)[C@H]3CC/C(=C\OS(=O)(=O)[O-])[C@H](CCC4=CCNC4=O)[C@@]3(C)CC[C@@H]12.[Na+] [Compound 9]	> 100	> 100		59.2 ± 1.11	IC50 [1, 9]: 59.1 ± 0.54 µM
C=C(CC(=O)O)C(=O)O [Itaconate, itaconate, reference compound]	> 100	> 100			

From publication PMC4210890, “Suvanine Sesterterpenes from a Tropical Sponge Coscinoderma sp. Inhibit Isocitrate Lyase in the Glyoxylate Cycle” (Marine Drugs, 2014)
